row,SMILES,melting point [°C]
1,Clc1ccc2cc(CBr)c3ccsc3c2c1,144 to 146
2,Cc1cccnc1OC(=O)Oc1ncccc1C,110 to 112
3,O=c1[nH]c(=O)n(C2CC(OCc3ccccc3)C(CO)O2)cc1F (stereo unspecified),138 to 139
4,OC1(c2cccs2)CCN(CCCc2nnc3n2CCCCC3)CC1,162 to 163
5,CCCCc1ccc(CCc2ccc(-c3ccc(F)cc3F)cc2)cc1,40
6,O=C(Nc1cc2c3c(c1)CCCC3CCC2)c1ccc(C(=O)O)nc1,239 to 240
7,CSCCC(NC(C)=O)C(=O)N1CC1C#N (stereo unspecified),86 to 88
8,Clc1ccsc1-c1nc(COc2ccc(CCCn3ccnc3)cc2)co1,69 to 70
9,COc1ccc(CC2CCC3NCC(CO)CC3C2)cc1 (stereo unspecified),160 to 162
10,C/C(=N\OCCBr)[C@H]1CC[C@H]2[C@@H]3CCC4=CC(=O)CC[C@]4(C)[C@H]3CC[C@]12C,96 to 98
11,Cc1csc(=Nc2ccccc2C)s1,65.5 to 69
12,CCCc1c(C(C)=O)ccc(OCc2nc3nccnc3c(=O)[nH]2)c1O,224 to 226
13,CC1(C)Oc2cc(Cl)c(F)cc2[C@@H](Br)[C@@H]1O (relative stereo),97 to 99
14,NC(=O)N(O)[C@H]1CC[C@H](Oc2ccccc2)C1,134
15,Cc1ncc(C(=O)O)cn1,166 to 170
16,CCOC1CCCC(C2NC(=O)C2C(C)O[Si](C)(C)C(C)(C)C)C1O (stereo unspecified),136 to 138
17,CC/C=C\CCC(C#N)(C#N)Cc1ccc(Cl)cc1,44.8
18,COc1ccc2cc(C(N)=O)c(N)nc2c1OC,218 to 219
19,COc1cc(C=Cc2nc3c(s2)NCCCC3)ccc1O,175 to 178
20,Cc1cc(Cl)cc(NC(=O)Cc2ccc(O)cc2)c1,176 to 178

row,SMILES,melting point [°C]
1,COC(=O)C(C)=Cc1cc(N)ccc1Cl,80
2,CC1=C(c2c[nH]c(-c3ccc(F)cc3)c2-c2ccncc2)CCN2CCC[C@@H]12,233 to 234
3,c1cc(Cc2cc3ccccc3[nH]2)cc(-c2cc3ccccc3[nH]2)c1,193 to 194
4,c1cnc2c(c1)NCc1cccn1C2,171 to 172
5,Cc1ccc(-c2cccc(/C=C/C(=O)Nc3ccc(Cc4ccccn4)cc3)c2)cc1,169 to 171
6,CCn1cc(C(=O)O)c(=O)c2cc(F)c(-n3ccnc3)c(F)c21,283 to 288
7,COc1c([N+](=O)[O-])cc(C=O)c(Cl)c1OC(C)=O,84 to 85
8,CCOc1nc(O)nn1CC,64 to 67
9,O=S(=O)(Nc1cccc(Cl)c1Cl)c1cc(S(=O)(=O)Nc2cccc(Cl)c2Cl)c2cc(O)ccc2c1,117 to 119
10,Cc1cc(C2=NOC(c3cc(Cl)cc(Cl)c3)(C(F)(F)F)O2)ccc1C(=O)O (stereo unspecified),114 to 134
11,O=C1NC(=O)C2(CCCc3ncc(Cl)cc32)N1 (stereo unspecified),230 to 233
12,CC(C)C(NS(=O)(=O)c1ccc(Cl)cc1)C(=O)Nc1ccc(CC(=O)O)cc1 (racemic),228 to 230
13,CC(=O)Nc1ccc(S(=O)(=O)Nc2ccccc2)cc1,209 to 210
14,N#Cc1cccc2c1CC(=NN)c1ccccc1S2,175 to 177
15,CCNC(=S)NS(=O)(=O)c1cnccc1NC1CCCCCCC1,196 to 198
16,Clc1nnc(Cl)c2sccc12,260 to 263
17,COC1=C(OC)C(=O)C(CO)=C(C)C1=O,52 to 54
18,Cc1cc2c(c(C)c1N)C(c1ccccc1)CO2 (stereo unspecified),127 to 128
19,COc1ccc2c(c1)C(Cc1ccnc(F)c1)(Cc1ccnc(F)c1)c1ccccc1C2=O,155 to 157
20,Cc1cc2[nH]c(=O)c3cnc(O)cc3n2n1,> 300

row,SMILES,melting point [°C]
1,CN1C(=O)[C@@H](NC(=O)C(C)(C)C)N=C(c2ccccc2)c2ccccc21,85 to 94
2,CCC(O)(CC)[C@@H]1C[C@@H]([C@H](CC2CCCCC2)NC(=O)OC(C)(C)C)OC1=O,118 to 120
3,Nc1c(Br)cc(C2=NNC(=O)CC2)cc1Br,212 to 214
4,C=CCc1c(O)cc(Cl)c2c(-c3ccccc3F)noc12,211 to 212
5,CS(=O)(=O)c1ccc(C(CC2CCCC2)C(=O)Nc2nccs2)cc1S(C)(=O)=O (stereo unspecified),104 to 107
6,O=S(=O)(Nc1ccc(Cl)cc1C(=NOc1ccc(Cl)cc1)c1ccccc1)C(F)(F)F,86 to 87
7,NCCc1ccc(OCc2ccccc2)c(NC(N)=O)c1,176 to 180
8,CC(=O)NC[C@H]1CN(c2ccc(C3CCNCC3)c(F)c2)C(=O)O1,109 to 110
9,NCCSC[C@H]1O[C@@H](n2cnc3c(NCc4ccc([N+](=O)[O-])cc4)ncnc32)[C@H](O)[C@@H]1O,115 to 117
10,N#Cc1cccc2c1CC(Br)C2=O (stereo unspecified),124
11,CSc1nc(-c2cc(C(C)(C)C)c(O)c(C(C)(C)C)c2)cs1,92 to 93
12,CC(C)(C)OC(=O)Nc1ccncc1N,124 to 126
13,c1ccc(-c2ccnc3ccnn23)cc1,72 to 73
14,CC(C(=O)N(C)C)n1nc(-c2ccccc2)c(Cl)c1Cl (stereo unspecified),102 to 103
15,CCOC(=O)c1sc(C)nc1OCCCc1cc(OC(C)C)nn1Cc1ccc(Cl)cc1Cl,92 to 93
16,COC(=O)c1sccc1Nc1ccccc1[N+](=O)[O-],184
17,N#Cc1ccc2sc(CBr)nc2c1,185 to 186
18,CCc1nc2c(N)nc3cc(OCCNC(C)=O)ccc3c2n1CC1CCOCC1,165 to 167
19,Nc1ncccc1OCC#CI,140
20,Cc1cc(C#N)cn2cc(-c3ccc(Br)o3)nc12,204 to 205

# Other lines, results leading:
row,melting point [°C],SMILES
1,169 to 171,Cc1cnc2c(NC(=O)c3c(Cl)cccc3Cl)cccc2c1OCC=Cc1ccccc1
2,134 to 138,COc1ccccc1N1CCN(CCCNC(=O)c2cccc3c(=O)c(C)c(-c4cccc5ccccc45)oc23)CC1
3,263 to 265,COc1cccc2c(Nc3ccccc3C)c(C(=O)CCC(=O)O)cnc12
4,221 to 223,CCN1CCN(Cc2ccc3c(c2)-c2[nH]nc(-c4ccsc4)c2C3)CC1
5,215 to 217,COc1cc(OC)c(-c2cc3ccccc3s2)cc1/C=C/C(=O)c1ccc(C(=O)NCC(F)(F)F)cc1
6,190 to 192,O=C(O)CCn1c(=O)c(=O)[nH]c2cc(C(F)(F)F)c(-n3cccc3)cc21
7,126 to 127,COc1ccc(C(C)C)c(NC(=O)CN2CCN(CCCSc3nc4c(C)c(Cl)cc(C(C)C)c4o3)CC2)c1C(C)C
8,116 to 119,CCCCCCCCCCOc1cccc(Nc2nnc(Cc3ccncc3)c3ccccc23)c1
9,131 to 132,CC(C)=CCc1c(O)ccc(C(=O)C=Cc2ccccc2)c1O
10,199,CCCCS(=O)(=O)Cc1ccc(C(=O)Nc2ccc3cc(CN4CCCC4)cnc3c2C)cc1
11,138 to 139,CCCCc1nc2cccc(C(=O)OCC)c2n1Cc1ccc(-c2ccccc2-c2nnn[nH]2)cc1
12,219 to 221,COc1cc2c(Nc3ccc(Sc4nccn4C)c(Cl)c3)c(C#N)cnc2cc1N1CCC(N2CCOCC2)CC1
13,143 to 144,CC(C)CCSc1cc(C(=O)O)cc([N+](=O)[O-])c1-c1ccccc1
14,118 to 120,CCN1CCN(Cc2cc(-c3ccc4c(Nc5cc(OC)c(Cl)cc5Cl)c(C#N)cnc4c3)cs2)CC1
15,195,O=C1NCCNC1c1cn(Cc2ccc(Cl)cc2)c2ccccc12 (stereo unspecified)
16,137 to 138,Cc1nc(N)c2nc(C)n(CCOCc3ccccc3)c2c1C
17,228,N#Cc1c(Cl)c2cc(F)ccc2n(Cc2ccccc2)c1=O
18,177 to 179,CCCc1c(OCCCS(=O)(=O)c2ccc(C(=O)O)cn2)ccc(C(C)=O)c1O
19,118 to 120,Cc1cc(-c2cc(COS(C)(=O)=O)c(=O)n(CC=Cc3ccc(Cl)cc3)n2)ccc1F
20,84.5 to 86,COc1ccc(-c2ccccc2)cc1F
21,107 to 109,O=C(Cl)[C@@H]1CCCN1S(=O)(=O)c1ccc2ccccc2c1

row,melting point [°C],SMILES
1,141,Fc1ccccc1-c1nc(Cl)nc2ccccc12
2,70 to 75,CC(=O)N1CCc2c(sc(C)c2CCN2CCC(c3noc4cc(F)ccc34)CC2)C1
3,169 to 171,O=C(O)CCNC(=O)NCCCN1CCN(c2ccccc2)CC1
4,88 to 90,CC(C)(C)OC(=O)COCCCCS(=O)(=O)c1cnc(-c2ccccc2)c(-c2ccccc2)n1
5,169 to 170,CCN(CC)c1ccc2nc3c4ccccc4c(=Nc4ccccn4)cc-3oc2c1
6,190 to 192,Cc1cccc2c1nc(COc1ccc(Cl)cc1)n2CCC(Cc1ccccc1)C(=O)O (stereo unspecified)
7,174 to 181,CC(=O)Nc1cc(N(C)C)ccc1C(=O)c1ccccc1C(=O)O
8,131 to 132,Cn1c(=O)c2c(ncn2CCOC(=O)C(C)(C)Oc2ccc(Cl)cc2)n(C)c1=O
9,150,CCOC(=O)N1CCc2nc3ccccc3c(Oc3ccccc3)c2CC1
10,165,O=c1ccc(-c2ccc(CCCO)cc2)cn1Cc1ccc(Cl)cc1
11,206,COc1cccc2c1CC(C(=O)NCCOc1ccc(C(=O)O)cc1)N2S(=O)(=O)c1ccc(-c2ccc(F)cc2F)cc1 (stereo unspecified)
12,100 to 102,O=C(N[C@@H](Cc1c[nH]c2ccccc12)C(=O)O)c1ccc(Cl)cc1
13,118 to 119,CCCCCC(O)C=Cn1c(=O)n(CCN2CCN(c3ccccc3OC)CC2)c(=O)c2ccccc21 (stereo unspecified)
14,76 to 80,O=C(C[C@H](NC(=O)OCc1ccccc1)C(=O)Nc1cc(Cc2n[nH]c(=O)c3ccccc23)ccc1F)OCc1ccccc1
15,176 to 179,COc1cc2c(cc1OC)N(c1ccc([N+](=O)[O-])cc1)CC2
16,282 to 283,O=C(O)c1csc2c(=O)cc(-c3ccccc3)oc12
17,212 to 215,O=C1N(Cc2ncccc2C(F)(F)F)c2ccccc2C12COc1ccc3nonc3c12 (stereo unspecified)
18,250 to 255,CC1Sc2c(C(=O)O)c(=O)c3cc(Cl)c(N4CCN(C)CC4)cc3n21 (stereo unspecified)
19,127 to 131,Cc1c(SCCCSCc2ccc(Cl)s2)ccnc1CNc1cnc2ccccc2c1
20,182 to 184,CCOC(=O)c1ncc2[nH]c3cccc(Cc4ccccc4Cl)c3c2c1COC

# From a melting point compilation (Tetko et al.; mined from patent text by program, amines drawn as free bases though some values may be those of a salt)
